# Test results from publication PMC6874179, “Development of Macrocycle Kinase Inhibitors for ALK2 Using Fibrodysplasia Ossificans Progressiva‐Derived Endothelial Cells” (JBMR Plus, 2019).
# Key:
# ACVR1 = molecular target: T1, ACVR1 (Homo sapiens, UniProt Q04771); test: Proqinase Kinase profiling; assay type: biochemical; settings: read-out: % inhibition at 100nM
# T1 construct: purchased DiscoverX
# TXK = molecular target: T2, TXK (Homo sapiens, UniProt P42681); test: Proqinase Kinase profiling; assay type: biochemical; settings: read-out: % inhibition at 100nM
# T2 construct: purchased DiscoverX
# CAMK2A = molecular target: T3, CAMK2A (Homo sapiens, UniProt Q9UQM7); test: Proqinase Kinase profiling; assay type: biochemical; settings: read-out: % inhibition at 100nM
# T3 construct: purchased DiscoverX
# T3 sequence (Q9UQM7 whole entry): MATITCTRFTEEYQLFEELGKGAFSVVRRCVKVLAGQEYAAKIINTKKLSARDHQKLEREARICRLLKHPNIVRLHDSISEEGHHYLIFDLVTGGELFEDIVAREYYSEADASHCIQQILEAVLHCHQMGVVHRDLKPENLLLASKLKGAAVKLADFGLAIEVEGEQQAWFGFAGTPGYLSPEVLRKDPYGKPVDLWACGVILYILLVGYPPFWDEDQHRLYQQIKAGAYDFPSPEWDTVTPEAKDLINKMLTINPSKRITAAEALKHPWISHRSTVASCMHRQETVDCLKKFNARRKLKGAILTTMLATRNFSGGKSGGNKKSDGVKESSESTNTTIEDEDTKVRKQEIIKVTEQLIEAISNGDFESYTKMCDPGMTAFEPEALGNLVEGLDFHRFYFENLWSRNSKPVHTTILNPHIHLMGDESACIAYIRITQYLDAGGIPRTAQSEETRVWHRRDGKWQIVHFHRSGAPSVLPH
# RET_G691S = molecular target: T4, RET_G691S (Homo sapiens, UniProt P07949, G691S); test: Proqinase Kinase profiling; assay type: biochemical; settings: read-out: % inhibition at 100nM
# T4 construct: purchased DiscoverX
# T4 sequence (P07949 29-1114 G691S): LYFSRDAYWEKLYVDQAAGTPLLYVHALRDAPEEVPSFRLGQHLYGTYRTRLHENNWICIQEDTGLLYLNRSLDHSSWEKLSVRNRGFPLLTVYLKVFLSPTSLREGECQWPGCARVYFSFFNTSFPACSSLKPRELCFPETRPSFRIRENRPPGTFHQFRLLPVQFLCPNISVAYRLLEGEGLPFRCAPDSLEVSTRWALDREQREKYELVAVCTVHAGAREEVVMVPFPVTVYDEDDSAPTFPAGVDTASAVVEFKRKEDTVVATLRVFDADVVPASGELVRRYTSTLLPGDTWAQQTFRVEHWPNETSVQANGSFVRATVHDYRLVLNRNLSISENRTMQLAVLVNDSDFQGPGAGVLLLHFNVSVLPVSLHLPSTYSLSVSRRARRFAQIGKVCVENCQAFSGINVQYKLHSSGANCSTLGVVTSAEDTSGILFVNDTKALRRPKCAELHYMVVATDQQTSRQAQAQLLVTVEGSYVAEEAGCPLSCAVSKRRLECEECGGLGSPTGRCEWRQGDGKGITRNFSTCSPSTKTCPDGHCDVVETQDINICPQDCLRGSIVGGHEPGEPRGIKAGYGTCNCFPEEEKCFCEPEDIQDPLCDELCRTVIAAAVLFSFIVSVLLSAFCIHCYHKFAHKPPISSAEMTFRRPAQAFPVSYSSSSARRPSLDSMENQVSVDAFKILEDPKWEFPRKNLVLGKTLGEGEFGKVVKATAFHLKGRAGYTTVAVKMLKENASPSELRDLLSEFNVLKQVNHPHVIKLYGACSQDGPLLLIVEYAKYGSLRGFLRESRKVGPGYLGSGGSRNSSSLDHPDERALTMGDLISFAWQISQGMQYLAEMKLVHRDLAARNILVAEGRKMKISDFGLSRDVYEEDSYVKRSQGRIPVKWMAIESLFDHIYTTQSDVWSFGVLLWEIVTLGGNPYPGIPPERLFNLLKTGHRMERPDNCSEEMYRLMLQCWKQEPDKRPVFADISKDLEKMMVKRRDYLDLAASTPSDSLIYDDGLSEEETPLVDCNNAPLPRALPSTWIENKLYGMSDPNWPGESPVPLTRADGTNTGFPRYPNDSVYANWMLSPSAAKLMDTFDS
# WNK2 = molecular target: T5, WNK2 (Homo sapiens, UniProt Q9Y3S1); test: Proqinase Kinase profiling; assay type: biochemical; settings: read-out: % inhibition at 100nM
# T5 construct: purchased DiscoverX
# HIPK4 = molecular target: T6, HIPK4 (Homo sapiens, UniProt Q8NE63); test: Proqinase Kinase profiling; assay type: biochemical; settings: read-out: % inhibition at 100nM
# T6 construct: purchased DiscoverX
# ALK = molecular target: T7, ALK (Homo sapiens, UniProt Q9UM73); test: Proqinase Kinase profiling; assay type: biochemical; settings: read-out: % inhibition at 100nM
# T7 construct: purchased DiscoverX
# T7 sequence (Q9UM73 19-1620): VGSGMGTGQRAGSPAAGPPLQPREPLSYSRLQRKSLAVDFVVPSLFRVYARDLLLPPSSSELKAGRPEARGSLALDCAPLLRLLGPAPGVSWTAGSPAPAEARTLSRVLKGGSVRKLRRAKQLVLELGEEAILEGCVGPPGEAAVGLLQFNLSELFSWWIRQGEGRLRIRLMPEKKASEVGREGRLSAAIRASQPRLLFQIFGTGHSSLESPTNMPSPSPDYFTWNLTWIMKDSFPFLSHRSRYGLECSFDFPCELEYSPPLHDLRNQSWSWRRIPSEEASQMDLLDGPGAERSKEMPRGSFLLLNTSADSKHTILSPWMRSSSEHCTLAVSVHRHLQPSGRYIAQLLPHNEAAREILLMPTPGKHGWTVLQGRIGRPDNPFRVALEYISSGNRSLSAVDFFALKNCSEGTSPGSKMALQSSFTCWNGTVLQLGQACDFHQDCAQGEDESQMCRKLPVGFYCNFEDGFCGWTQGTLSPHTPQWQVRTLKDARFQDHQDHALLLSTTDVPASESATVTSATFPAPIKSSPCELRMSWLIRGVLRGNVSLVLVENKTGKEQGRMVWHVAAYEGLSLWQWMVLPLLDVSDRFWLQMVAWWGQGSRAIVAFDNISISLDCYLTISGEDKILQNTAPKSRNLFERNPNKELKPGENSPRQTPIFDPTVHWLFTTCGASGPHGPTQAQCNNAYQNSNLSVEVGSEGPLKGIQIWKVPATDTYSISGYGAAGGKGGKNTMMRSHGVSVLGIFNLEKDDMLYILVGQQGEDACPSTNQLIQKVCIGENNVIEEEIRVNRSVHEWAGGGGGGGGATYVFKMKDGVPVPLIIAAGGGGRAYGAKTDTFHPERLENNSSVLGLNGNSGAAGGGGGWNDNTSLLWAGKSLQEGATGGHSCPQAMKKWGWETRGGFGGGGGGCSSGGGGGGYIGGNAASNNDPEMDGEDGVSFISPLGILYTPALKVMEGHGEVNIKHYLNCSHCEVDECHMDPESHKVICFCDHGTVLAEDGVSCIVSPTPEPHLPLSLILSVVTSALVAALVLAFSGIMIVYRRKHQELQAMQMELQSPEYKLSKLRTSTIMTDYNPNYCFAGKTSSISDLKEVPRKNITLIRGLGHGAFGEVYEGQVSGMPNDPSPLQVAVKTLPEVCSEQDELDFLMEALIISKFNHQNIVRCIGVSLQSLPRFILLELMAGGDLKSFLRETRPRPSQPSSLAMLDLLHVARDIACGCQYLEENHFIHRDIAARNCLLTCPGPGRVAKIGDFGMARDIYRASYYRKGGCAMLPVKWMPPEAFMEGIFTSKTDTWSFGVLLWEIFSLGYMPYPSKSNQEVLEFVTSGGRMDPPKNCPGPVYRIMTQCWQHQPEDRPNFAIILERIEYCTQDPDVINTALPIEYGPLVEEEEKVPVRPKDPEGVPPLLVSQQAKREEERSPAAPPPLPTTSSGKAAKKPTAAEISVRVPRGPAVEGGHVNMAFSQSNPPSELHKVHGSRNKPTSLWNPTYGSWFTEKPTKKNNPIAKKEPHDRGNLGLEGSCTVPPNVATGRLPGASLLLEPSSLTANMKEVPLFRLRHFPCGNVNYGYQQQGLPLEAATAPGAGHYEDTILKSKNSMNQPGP
# DCLK2 = molecular target: T8, DCLK2 (Homo sapiens, UniProt Q8N568); test: Proqinase Kinase profiling; assay type: biochemical; settings: read-out: % inhibition at 100nM
# T8 construct: purchased DiscoverX
# MAPK13 = molecular target: T9, MAPK13 (Homo sapiens, UniProt O15264); test: Proqinase Kinase profiling; assay type: biochemical; settings: read-out: % inhibition at 100nM
# T9 construct: purchased DiscoverX
# PASK = molecular target: T10, PASK (Homo sapiens, UniProt Q96RG2); test: Proqinase Kinase profiling; assay type: biochemical; settings: read-out: % inhibition at 100nM
# T10 construct: purchased DiscoverX
# AKT3 = molecular target: T11, AKT3 (Homo sapiens, UniProt Q9Y243); test: Proqinase Kinase profiling; assay type: biochemical; settings: read-out: % inhibition at 100nM
# T11 construct: purchased DiscoverX
# T11 sequence (Q9Y243 whole entry): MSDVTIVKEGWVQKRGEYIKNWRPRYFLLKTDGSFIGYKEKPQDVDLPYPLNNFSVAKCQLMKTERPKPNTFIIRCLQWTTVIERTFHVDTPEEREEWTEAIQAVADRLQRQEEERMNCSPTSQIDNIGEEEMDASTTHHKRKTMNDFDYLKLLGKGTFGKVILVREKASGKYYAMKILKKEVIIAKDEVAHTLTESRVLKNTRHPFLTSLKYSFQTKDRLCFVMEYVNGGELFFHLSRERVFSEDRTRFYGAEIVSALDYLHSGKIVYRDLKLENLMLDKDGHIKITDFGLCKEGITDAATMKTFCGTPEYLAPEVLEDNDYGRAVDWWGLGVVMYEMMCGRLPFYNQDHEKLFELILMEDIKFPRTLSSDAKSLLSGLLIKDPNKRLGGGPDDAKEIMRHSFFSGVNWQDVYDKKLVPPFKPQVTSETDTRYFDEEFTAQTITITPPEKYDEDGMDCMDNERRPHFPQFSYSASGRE
# CDK6_cyclinD1 = molecular target: T12, CDK6_cyclinD1 (Homo sapiens, UniProt Q00534); test: Proqinase Kinase profiling; assay type: biochemical; settings: read-out: % inhibition at 100nM
# T12 construct: purchased DiscoverX
# MAPK3 = molecular target: T13, MAPK3 (Homo sapiens, UniProt P27361); test: Proqinase Kinase profiling; assay type: biochemical; settings: read-out: % inhibition at 100nM
# T13 construct: purchased DiscoverX
# NLK = molecular target: T14, NLK (Homo sapiens, UniProt Q9UBE8); test: Proqinase Kinase profiling; assay type: biochemical; settings: read-out: % inhibition at 100nM
# T14 construct: purchased DiscoverX
# ABL1 = molecular target: T15, ABL1 (Homo sapiens, UniProt P00519); test: Proqinase Kinase profiling; assay type: biochemical; settings: read-out: % inhibition at 100nM
# T15 construct: purchased DiscoverX
# MET_Y1230A = molecular target: T16, MET_Y1230A (Homo sapiens, UniProt P08581, Y1230A); test: Proqinase Kinase profiling; assay type: biochemical; settings: read-out: % inhibition at 100nM
# T16 construct: purchased DiscoverX
# PTK2 = molecular target: T17, PTK2 (Homo sapiens, UniProt Q05397); test: Proqinase Kinase profiling; assay type: biochemical; settings: read-out: % inhibition at 100nM
# T17 construct: purchased DiscoverX
# ALK_R1275Q = molecular target: T18, ALK_R1275Q (Homo sapiens, UniProt Q9UM73, R1275Q); test: Proqinase Kinase profiling; assay type: biochemical; settings: read-out: % inhibition at 100nM
# T18 construct: purchased DiscoverX
# T18 sequence (Q9UM73 19-1620 R1275Q): as the sequence (Q9UM73 19-1620) above, with R1257Q counted along it
# BTK = molecular target: T19, BTK (Homo sapiens, UniProt Q06187); test: Proqinase Kinase profiling; assay type: biochemical; settings: read-out: % inhibition at 100nM
# T19 construct: purchased DiscoverX
# ABL1_F317I = molecular target: T20, ABL1_F317I (Homo sapiens, UniProt P00519, F317I); test: Proqinase Kinase profiling; assay type: biochemical; settings: read-out: % inhibition at 100nM
# T20 construct: purchased DiscoverX
# TYK2 = molecular target: T21, TYK2 (Homo sapiens, UniProt P29597); test: Proqinase Kinase profiling; assay type: biochemical; settings: read-out: % inhibition at 100nM
# T21 construct: purchased DiscoverX
# T21 sequence (P29597 whole entry): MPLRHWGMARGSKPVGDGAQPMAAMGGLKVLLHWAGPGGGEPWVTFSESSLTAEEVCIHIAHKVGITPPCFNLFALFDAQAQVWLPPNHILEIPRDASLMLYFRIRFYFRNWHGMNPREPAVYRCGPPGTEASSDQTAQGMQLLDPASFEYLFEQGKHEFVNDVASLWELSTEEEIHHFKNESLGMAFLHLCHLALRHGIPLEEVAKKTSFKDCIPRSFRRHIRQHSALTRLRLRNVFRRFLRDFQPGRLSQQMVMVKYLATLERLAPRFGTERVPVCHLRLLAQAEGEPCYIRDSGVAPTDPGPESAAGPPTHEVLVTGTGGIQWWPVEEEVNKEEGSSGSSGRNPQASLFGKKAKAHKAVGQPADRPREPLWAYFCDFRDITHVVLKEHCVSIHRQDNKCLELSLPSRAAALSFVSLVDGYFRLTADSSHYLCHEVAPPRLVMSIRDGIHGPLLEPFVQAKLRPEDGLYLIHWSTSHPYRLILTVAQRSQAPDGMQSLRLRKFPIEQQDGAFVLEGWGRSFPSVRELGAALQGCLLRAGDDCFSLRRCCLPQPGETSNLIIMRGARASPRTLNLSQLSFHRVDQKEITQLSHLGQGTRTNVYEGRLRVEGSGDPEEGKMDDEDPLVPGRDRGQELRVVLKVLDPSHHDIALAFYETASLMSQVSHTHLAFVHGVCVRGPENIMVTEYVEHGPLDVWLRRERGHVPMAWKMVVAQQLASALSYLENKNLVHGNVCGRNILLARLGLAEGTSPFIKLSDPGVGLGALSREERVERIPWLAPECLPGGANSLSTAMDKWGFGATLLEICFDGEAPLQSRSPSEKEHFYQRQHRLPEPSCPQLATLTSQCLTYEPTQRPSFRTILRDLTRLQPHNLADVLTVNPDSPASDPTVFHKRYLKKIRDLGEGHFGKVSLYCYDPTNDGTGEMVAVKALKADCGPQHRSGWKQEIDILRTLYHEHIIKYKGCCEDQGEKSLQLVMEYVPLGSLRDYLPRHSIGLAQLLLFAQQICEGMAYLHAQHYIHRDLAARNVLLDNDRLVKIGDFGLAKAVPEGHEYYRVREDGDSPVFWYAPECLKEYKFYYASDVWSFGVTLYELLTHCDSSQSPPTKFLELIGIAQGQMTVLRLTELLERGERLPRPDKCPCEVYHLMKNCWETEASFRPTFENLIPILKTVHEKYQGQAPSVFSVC
# WNK3 = molecular target: T22, WNK3 (Homo sapiens, UniProt Q9BYP7); test: Proqinase Kinase profiling; assay type: biochemical; settings: read-out: % inhibition at 100nM
# T22 construct: purchased DiscoverX
# KIT = molecular target: T23, KIT (Homo sapiens, UniProt P10721); test: Proqinase Kinase profiling; assay type: biochemical; settings: read-out: % inhibition at 100nM
# T23 construct: purchased DiscoverX
# DYRK1A = molecular target: T24, DYRK1A (Homo sapiens, UniProt Q13627); test: Proqinase Kinase profiling; assay type: biochemical; settings: read-out: % inhibition at 100nM
# T24 construct: purchased DiscoverX
# CAMK1D = molecular target: T25, CAMK1D (Homo sapiens, UniProt Q8IU85); test: Proqinase Kinase profiling; assay type: biochemical; settings: read-out: % inhibition at 100nM
# T25 construct: purchased DiscoverX
# MAP3K7 = molecular target: T26, MAP3K7 (Homo sapiens, UniProt O43318); test: Proqinase Kinase profiling; assay type: biochemical; settings: read-out: % inhibition at 100nM
# T26 construct: purchased DiscoverX
# KIT_V559D_T670I = molecular target: T27, KIT_V559D_T670I (Homo sapiens, UniProt P10721, T670I/V559D); test: Proqinase Kinase profiling; assay type: biochemical; settings: read-out: % inhibition at 100nM
# T27 construct: purchased DiscoverX
# CDK5_p35 = molecular target: T28, CDK5_p35 (Homo sapiens, UniProt Q00535); test: Proqinase Kinase profiling; assay type: biochemical; settings: read-out: % inhibition at 100nM
# T28 construct: purchased DiscoverX
# SRMS = molecular target: T29, SRMS (Homo sapiens, UniProt Q9H3Y6); test: Proqinase Kinase profiling; assay type: biochemical; settings: read-out: % inhibition at 100nM
# T29 construct: purchased DiscoverX
# ROCK2 = molecular target: T30, ROCK2 (Homo sapiens, UniProt O75116); test: Proqinase Kinase profiling; assay type: biochemical; settings: read-out: % inhibition at 100nM
# T30 construct: purchased DiscoverX
# MINK1 = molecular target: T31, MINK1 (Homo sapiens, UniProt Q8N4C8); test: Proqinase Kinase profiling; assay type: biochemical; settings: read-out: % inhibition at 100nM
# T31 construct: purchased DiscoverX
# MET_Y1230D = molecular target: T32, MET_Y1230D (Homo sapiens, UniProt P08581, Y1230D); test: Proqinase Kinase profiling; assay type: biochemical; settings: read-out: % inhibition at 100nM
# T32 construct: purchased DiscoverX
# KDR = molecular target: T33, KDR (Homo sapiens, UniProt P35968); test: Proqinase Kinase profiling; assay type: biochemical; settings: read-out: % inhibition at 100nM
# T33 construct: purchased DiscoverX
# EGFR_S752-I759del = molecular target: T34, EGFR_S752-I759del (Homo sapiens, UniProt P00533, DEL752-759); test: Proqinase Kinase profiling; assay type: biochemical; settings: read-out: % inhibition at 100nM
# T34 construct: purchased DiscoverX
# MET_M1250T = molecular target: T35, MET_M1250T (Homo sapiens, UniProt P08581, M1250T); test: Proqinase Kinase profiling; assay type: biochemical; settings: read-out: % inhibition at 100nM
# T35 construct: purchased DiscoverX
# KIT_V560G = molecular target: T36, KIT_V560G (Homo sapiens, UniProt P10721, V560G); test: Proqinase Kinase profiling; assay type: biochemical; settings: read-out: % inhibition at 100nM
# T36 construct: purchased DiscoverX
# IGF1R = molecular target: T37, IGF1R (Homo sapiens, UniProt P08069); test: Proqinase Kinase profiling; assay type: biochemical; settings: read-out: % inhibition at 100nM
# T37 construct: purchased DiscoverX
# ALK2 wt = ALK2 wt (Homo sapiens, UniProt Q04771); test: RBC HotSpot Kinase assay; assay type: biochemical
# BMP-6-induced p-Smad1/5 = test: Western blot of p-Smad1/5 in KS483 cells; assay type: cell-based, mouse
# Method: Compounds were added for 16 hours at 0.5μM before luciferase activity was measured.
# Cells were seeded into 6-well plates and cultured till they reached confluence. Next, cells were stimulated as indicated and then washed with cold PBS. […] Electrophoresis was performed in 10% SDS/polyacrylamide gels. Separated proteins were transferred to nitrocellulose membranes (0.5 A at 100 V; in ice) for 1 hour. Blots were blocked in Tris-Buffered Saline solution containing 0.1% Tween 20 and 5% non-fat dry milk overnight at 4 °C, and immune-detection of specific proteins was carried out with primary antibodies (see above) followed by horseradish peroxidase-conjugated anti-mouse or anti-rabbit (GE Healthcare, Eindhoven, The Netherlands) secondary antibodies using an ECL system (Fisher Scientific, Landsmeer, The Netherlands).
structure (smiles),measurement,setting,value
Clc1cc2cc(c1)-c1cnn3ccc(nc13)NCCOCCO2 [OD36],inhibition at 0.1 µM,ACVR1,95%
same,inhibition at 0.1 µM,TXK,37%
same,inhibition at 0.1 µM,CAMK2A,18%
same,inhibition at 0.1 µM,RET_G691S,25%
same,inhibition at 0.1 µM,WNK2,1%
same,inhibition at 0.1 µM,HIPK4,47%
same,inhibition at 0.1 µM,ALK,6%
same,inhibition at 0.1 µM,DCLK2,11%
same,inhibition at 0.1 µM,MAPK13,15%
same,inhibition at 0.1 µM,PASK,3%
same,inhibition at 0.1 µM,AKT3,-1%
same,inhibition at 0.1 µM,CDK6_cyclinD1,-5%
same,inhibition at 0.1 µM,MAPK3,12%
same,inhibition at 0.1 µM,NLK,33%
same,inhibition at 0.1 µM,ABL1,3%
same,inhibition at 0.1 µM,MET_Y1230A,-3%
same,inhibition at 0.1 µM,PTK2,18%
same,inhibition at 0.1 µM,ALK_R1275Q,6%
same,inhibition at 0.1 µM,BTK,3%
same,inhibition at 0.1 µM,ABL1_F317I,8%
same,inhibition at 0.1 µM,TYK2,14%
same,inhibition at 0.1 µM,WNK3,5%
same,inhibition at 0.1 µM,KIT,33%
same,inhibition at 0.1 µM,DYRK1A,7%
same,inhibition at 0.1 µM,CAMK1D,6%
same,inhibition at 0.1 µM,MAP3K7,3%
same,inhibition at 0.1 µM,KIT_V559D_T670I,7%
same,inhibition at 0.1 µM,CDK5_p35,9%
same,inhibition at 0.1 µM,SRMS,11%
same,inhibition at 0.1 µM,ROCK2,7%
same,inhibition at 0.1 µM,MINK1,5%
same,inhibition at 0.1 µM,MET_Y1230D,-6%
same,inhibition at 0.1 µM,KDR,32%
same,inhibition at 0.1 µM,EGFR_S752-I759del,17%
same,inhibition at 0.1 µM,MET_M1250T,12%
same,inhibition at 0.1 µM,KIT_V560G,19%
same,inhibition at 0.1 µM,IGF1R,3%
same,IC50,ALK2 wt,47 nM
same,Inhibition of BMP-6-induced p-Smad1/5,BMP-6-induced p-Smad1/5,efficiently inhibited
Cc1cc2cc(c1)-c1cnn3ccc(nc13)NCCNC(=O)CCN(C)C2 [OD52],inhibition at 0.1 µM,ACVR1,90%
same,inhibition at 0.1 µM,TXK,25%
same,inhibition at 0.1 µM,CAMK2A,25%
same,inhibition at 0.1 µM,RET_G691S,24%
same,inhibition at 0.1 µM,WNK2,17%
same,inhibition at 0.1 µM,HIPK4,10%
same,inhibition at 0.1 µM,ALK,8%
same,inhibition at 0.1 µM,DCLK2,7%
same,inhibition at 0.1 µM,MAPK13,3%
same,inhibition at 0.1 µM,PASK,3%
same,inhibition at 0.1 µM,AKT3,2%
same,inhibition at 0.1 µM,CDK6_cyclinD1,2%
same,inhibition at 0.1 µM,MAPK3,1%
same,inhibition at 0.1 µM,NLK,1%
same,inhibition at 0.1 µM,ABL1,0%
same,inhibition at 0.1 µM,MET_Y1230A,-1%
same,inhibition at 0.1 µM,PTK2,-1%
same,inhibition at 0.1 µM,ALK_R1275Q,-1%
same,inhibition at 0.1 µM,BTK,-2%
same,inhibition at 0.1 µM,ABL1_F317I,-3%
same,inhibition at 0.1 µM,TYK2,-3%
same,inhibition at 0.1 µM,WNK3,-4%
same,inhibition at 0.1 µM,KIT,-4%
same,inhibition at 0.1 µM,DYRK1A,-4%
same,inhibition at 0.1 µM,CAMK1D,-4%
same,inhibition at 0.1 µM,MAP3K7,-6%
same,inhibition at 0.1 µM,KIT_V559D_T670I,-8%
same,inhibition at 0.1 µM,CDK5_p35,-8%
same,inhibition at 0.1 µM,SRMS,-9%
same,inhibition at 0.1 µM,ROCK2,-9%
same,inhibition at 0.1 µM,MINK1,-11%
same,inhibition at 0.1 µM,MET_Y1230D,-12%
same,inhibition at 0.1 µM,KDR,-14%
same,inhibition at 0.1 µM,EGFR_S752-I759del,-15%
same,inhibition at 0.1 µM,MET_M1250T,-19%
same,inhibition at 0.1 µM,KIT_V560G,-21%
same,inhibition at 0.1 µM,IGF1R,-25%
same,IC50,ALK2 wt,72 nM
same,Inhibition of BMP-6-induced p-Smad1/5,BMP-6-induced p-Smad1/5,efficiently inhibited
